Non-standard residues stand in square brackets, D forms with d. Residues, ends and D or L forms follow the SMILES beside them. Nle = CCCC[C@H](N)C(=O)O
Columns and labels:
[1] = pH 7.4; ref [67]; cited from earlier work
C. elegans CL2355 = test: Chemotaxis assay in transgenic C. elegans; type: in vivo, Caenorhabditis elegans; conditions: fed 0.5, 5 and 50 μM; untreated CL2355 0.18 ± 0.01, CL2122 0.29 ± 0.01
5xFAD mice = test: PET/CT imaging in 5xFAD mice; type: in vivo, mouse; conditions: 6-mo-old 5xFAD mice, 1 h post injection

| Molecule | Chemotaxis index (CI) of CL2355 mutants (C. elegans CL2355) | other results |
| --- | --- | --- |
| O=C(O)CN1CCN(CC(=O)O)CCN(CC(=O)O)CC1 [NOTA, 2,2′,2”-(1,4,7-triazacyclononane-1,4,7-triyl)triacetic acid] | – | Thermodynamic stability constant of Cu^2+ complex (log KML) [1]: 23.33 |
| CCCC[C@@H]1NC(=O)[C@@H](CC(C)C)NC(=O)[C@H](CCCCN)NC(=O)[C@@H](CO)NC(=O)[C@H](Cc2c[nH]cn2)NC(=O)[C@@H](C)NC1=O [[w4a]-1, c-(D-Leu-Nle-D-Ala-His-D-Ser-Lys)] (cyclo(H[dS]K[dL][Nle][dA])) | significantly less protective than peptide 1 | – |
| [11CH3]Nc1ccc(-c2nc3ccc(O)cc3s2)cc1 [^11C-PIB, ^11C-Pittsburgh compound B] | – | Hippocampal uptake (PET) (5xFAD mice): 1.038 ± 0.028 %ID/g |
| H-[dL][Nle][dW]H[dS]K-OH [Lin-1] | significantly less protective than peptide 1 | – |

Reference: publication PMC9894226 (Proceedings of the National Academy of Sciences of the …, 2022)
